{"source": "PubChem BioAssay (NCI)", "experiment_in_all_cases": "NCI-60 cell line screen, 48 h", "key": {"NCI-H23 lung": {"test_system": "NCI-H23 lung"}, "NCI-H460 lung": {"test_system": "NCI-H460 lung"}, "NCI-H522 lung": {"test_system": "NCI-H522 lung"}, "NCI/ADR-RES ovarian": {"test_system": "NCI/ADR-RES ovarian"}, "OVCAR-3 ovarian": {"test_system": "OVCAR-3 ovarian"}, "OVCAR-4 ovarian": {"test_system": "OVCAR-4 ovarian"}, "OVCAR-5 ovarian": {"test_system": "OVCAR-5 ovarian"}, "OVCAR-8 ovarian": {"test_system": "OVCAR-8 ovarian"}, "PC-3 prostate": {"test_system": "PC-3 prostate"}, "RPMI-8226 leukemia": {"test_system": "RPMI-8226 leukemia"}, "RXF 393 renal": {"test_system": "RXF 393 renal"}, "SF-268 CNS": {"test_system": "SF-268 CNS"}, "SF-295 CNS": {"test_system": "SF-295 CNS"}, "SF-539 CNS": {"test_system": "SF-539 CNS"}, "SK-MEL-2 melanoma": {"test_system": "SK-MEL-2 melanoma"}, "SK-MEL-28 melanoma": {"test_system": "SK-MEL-28 melanoma"}, "SK-MEL-5 melanoma": {"test_system": "SK-MEL-5 melanoma"}, "SK-OV-3 ovarian": {"test_system": "SK-OV-3 ovarian"}, "SN12C renal": {"test_system": "SN12C renal"}, "SNB-19 CNS": {"test_system": "SNB-19 CNS"}, "SNB-75 CNS": {"test_system": "SNB-75 CNS"}, "SR leukemia": {"test_system": "SR leukemia"}, "SW-620 colon": {"test_system": "SW-620 colon"}, "T-47D breast": {"test_system": "T-47D breast"}, "TK-10 renal": {"test_system": "TK-10 renal"}, "U251 CNS": {"test_system": "U251 CNS"}, "UACC-257 melanoma": {"test_system": "UACC-257 melanoma"}, "UACC-62 melanoma": {"test_system": "UACC-62 melanoma"}, "UO-31 renal": {"test_system": "UO-31 renal"}}, "note": "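Protocol summary: plate cells (96-well), add compound at 5 concentrations, incubate 48 h, interpolate endpoints linearly. The concentration for 50% growth inhibition is given as GI50. TGI denotes the concentration required for complete inhibition of growth.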"}
{"smiles": "CSC1=Nc2c(c(C)c(C)n2COC(CO)CO)C2=NC(=O)C(C)N12", "note": "(configuration not stated)", "values": [{"measurement": "TGI", "setting": "NCI-H23 lung", "result": "> 100", "unit": "µM"}, {"measurement": "GI50", "setting": "NCI-H460 lung", "result": "> 100", "unit": "µM"}, {"measurement": "TGI", "setting": "NCI-H460 lung", "result": "> 100", "unit": "µM"}, {"measurement": "GI50", "setting": "NCI-H522 lung", "result": "> 100", "unit": "µM"}, {"measurement": "TGI", "setting": "NCI-H522 lung", "result": "> 100", "unit": "µM"}, {"measurement": "GI50", "setting": "NCI/ADR-RES ovarian", "result": "> 100", "unit": "µM"}, {"measurement": "TGI", "setting": "NCI/ADR-RES ovarian", "result": "> 100", "unit": "µM"}, {"measurement": "GI50", "setting": "OVCAR-3 ovarian", "result": "> 100", "unit": "µM"}, {"measurement": "TGI", "setting": "OVCAR-3 ovarian", "result": "> 100", "unit": "µM"}, {"measurement": "GI50", "setting": "OVCAR-4 ovarian", "result": "> 100", "unit": "µM"}, {"measurement": "TGI", "setting": "OVCAR-4 ovarian", "result": "> 100", "unit": "µM"}, {"measurement": "GI50", "setting": "OVCAR-5 ovarian", "result": "> 100", "unit": "µM"}, {"measurement": "TGI", "setting": "OVCAR-5 ovarian", "result": "> 100", "unit": "µM"}, {"measurement": "GI50", "setting": "OVCAR-8 ovarian", "result": "> 100", "unit": "µM"}, {"measurement": "TGI", "setting": "OVCAR-8 ovarian", "result": "> 100", "unit": "µM"}, {"measurement": "GI50", "setting": "PC-3 prostate", "result": "> 100", "unit": "µM"}, {"measurement": "TGI", "setting": "PC-3 prostate", "result": "> 100", "unit": "µM"}, {"measurement": "GI50", "setting": "RPMI-8226 leukemia", "result": "> 100", "unit": "µM"}, {"measurement": "TGI", "setting": "RPMI-8226 leukemia", "result": "> 100", "unit": "µM"}, {"measurement": "GI50", "setting": "RXF 393 renal", "result": "> 100", "unit": "µM"}, {"measurement": "TGI", "setting": "RXF 393 renal", "result": "> 100", "unit": "µM"}, {"measurement": "GI50", "setting": "SF-268 CNS", "result": "> 100", "unit": "µM"}, {"measurement": "TGI", "setting": "SF-268 CNS", "result": "> 100", "unit": "µM"}, {"measurement": "GI50", "setting": "SF-295 CNS", "result": "> 100", "unit": "µM"}, {"measurement": "TGI", "setting": "SF-295 CNS", "result": "> 100", "unit": "µM"}, {"measurement": "GI50", "setting": "SF-539 CNS", "result": "> 100", "unit": "µM"}, {"measurement": "TGI", "setting": "SF-539 CNS", "result": "> 100", "unit": "µM"}, {"measurement": "GI50", "setting": "SK-MEL-2 melanoma", "result": "> 100", "unit": "µM"}, {"measurement": "TGI", "setting": "SK-MEL-2 melanoma", "result": "> 100", "unit": "µM"}, {"measurement": "GI50", "setting": "SK-MEL-28 melanoma", "result": "> 100", "unit": "µM"}, {"measurement": "TGI", "setting": "SK-MEL-28 melanoma", "result": "> 100", "unit": "µM"}, {"measurement": "GI50", "setting": "SK-MEL-5 melanoma", "result": "> 100", "unit": "µM"}, {"measurement": "TGI", "setting": "SK-MEL-5 melanoma", "result": "> 100", "unit": "µM"}, {"measurement": "GI50", "setting": "SK-OV-3 ovarian", "result": "> 100", "unit": "µM"}, {"measurement": "TGI", "setting": "SK-OV-3 ovarian", "result": "> 100", "unit": "µM"}, {"measurement": "GI50", "setting": "SN12C renal", "result": "> 100", "unit": "µM"}, {"measurement": "TGI", "setting": "SN12C renal", "result": "> 100", "unit": "µM"}, {"measurement": "GI50", "setting": "SNB-19 CNS", "result": "> 100", "unit": "µM"}, {"measurement": "TGI", "setting": "SNB-19 CNS", "result": "> 100", "unit": "µM"}, {"measurement": "GI50", "setting": "SNB-75 CNS", "result": 26.3, "unit": "µM"}, {"measurement": "TGI", "setting": "SNB-75 CNS", "result": "> 100", "unit": "µM"}, {"measurement": "GI50", "setting": "SR leukemia", "result": 2.48, "unit": "µM"}, {"measurement": "TGI", "setting": "SR leukemia", "result": "> 100", "unit": "µM"}, {"measurement": "GI50", "setting": "SW-620 colon", "result": "> 100", "unit": "µM"}, {"measurement": "TGI", "setting": "SW-620 colon", "result": "> 100", "unit": "µM"}, {"measurement": "GI50", "setting": "T-47D breast", "result": "> 100", "unit": "µM"}, {"measurement": "TGI", "setting": "T-47D breast", "result": "> 100", "unit": "µM"}, {"measurement": "GI50", "setting": "TK-10 renal", "result": "> 100", "unit": "µM"}, {"measurement": "TGI", "setting": "TK-10 renal", "result": "> 100", "unit": "µM"}, {"measurement": "GI50", "setting": "U251 CNS", "result": "> 100", "unit": "µM"}, {"measurement": "TGI", "setting": "U251 CNS", "result": "> 100", "unit": "µM"}, {"measurement": "GI50", "setting": "UACC-257 melanoma", "result": "> 100", "unit": "µM"}, {"measurement": "TGI", "setting": "UACC-257 melanoma", "result": "> 100", "unit": "µM"}, {"measurement": "GI50", "setting": "UACC-62 melanoma", "result": "> 100", "unit": "µM"}, {"measurement": "TGI", "setting": "UACC-62 melanoma", "result": "> 100", "unit": "µM"}, {"measurement": "GI50", "setting": "UO-31 renal", "result": "> 100", "unit": "µM"}, {"measurement": "TGI", "setting": "UO-31 renal", "result": "> 100", "unit": "µM"}]}
